According to ChEMBL document CHEMBL1138445, “Design and synthesis of potent inhibitors of cholesteryl ester transfer protein (CETP) exploiting a 1,2,3,4-tetrahydroquinoline platform” (Bioorg Med Chem Lett, 2009):

Molecular target: T1, Cholesteryl ester transfer protein (Homo sapiens) (UniProt P11597)
T1 sequence (whole entry): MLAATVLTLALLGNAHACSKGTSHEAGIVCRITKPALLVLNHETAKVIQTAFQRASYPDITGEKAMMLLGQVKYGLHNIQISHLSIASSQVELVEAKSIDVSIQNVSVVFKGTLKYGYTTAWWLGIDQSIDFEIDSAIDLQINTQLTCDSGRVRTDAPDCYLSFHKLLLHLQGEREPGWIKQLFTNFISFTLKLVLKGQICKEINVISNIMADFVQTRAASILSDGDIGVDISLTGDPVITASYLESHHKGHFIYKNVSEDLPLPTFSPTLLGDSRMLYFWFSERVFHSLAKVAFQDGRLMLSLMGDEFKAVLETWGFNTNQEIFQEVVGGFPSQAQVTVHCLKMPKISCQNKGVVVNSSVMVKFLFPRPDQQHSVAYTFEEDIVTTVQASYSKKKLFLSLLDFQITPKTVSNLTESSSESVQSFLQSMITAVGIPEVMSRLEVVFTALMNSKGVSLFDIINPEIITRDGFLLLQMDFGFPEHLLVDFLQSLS
Test: Inhibition of human plasma derived CETP relative to control
Set-up: concentration or dose not given beside the values
Settings: concentration not given here

inhibition | SMILES
0% | OC(CN1c2cccc(-c3cccc(OC(F)(F)F)c3)c2CCC1c1cccc(OC(F)(F)C(F)F)c1)C(F)(F)F (single isomer, unassigned; 39)
9% | OC(CN1c2cccc(-c3cccc(OC(F)(F)F)c3)c2CCC1c1cccc(OC(F)(F)C(F)F)c1)C(F)(F)F (single isomer, unassigned; 38)
86% | OC(CN1c2cccc(-c3cccc(OC(F)(F)F)c3)c2CCC1c1cccc(OC(F)(F)C(F)F)c1)C(F)(F)F (single isomer, unassigned; 20)
50% | OC(CN1c2cccc(-c3cccc(OC(F)(F)F)c3)c2CCC1c1cccc(C(F)(F)F)c1)C(F)(F)F (stereo in doubt; 48)
67% | OC(CN1c2cccc(-c3cccc(Cl)c3)c2CCC1c1cccc(OC(F)(F)C(F)F)c1)C(F)(F)F (single isomer, unassigned; diastereomer 1)
85% | N#Cc1cccc(-c2cccc3c2CCC(c2cccc(OC(F)(F)C(F)F)c2)N3CC(O)C(F)(F)F)c1 (single isomer, unassigned; diastereomer 1)
52% | OC(CN1c2cccc(-c3cccc(F)c3)c2CCC1c1cccc(OC(F)(F)C(F)F)c1)C(F)(F)F (single isomer, unassigned; diastereomer 2)
55% | OC(CN1c2cccc(-c3cccc(Cl)c3)c2CCC1c1cccc(OC(F)(F)C(F)F)c1)C(F)(F)F (single isomer, unassigned; diastereomer 2)
93% | OC(CN1c2cccc(-c3cccc(F)c3)c2CCC1c1cccc(OC(F)(F)C(F)F)c1)C(F)(F)F (single isomer, unassigned; diastereomer 1)
37% | OC(CN1c2cccc(-c3cccc(OC(F)(F)F)c3)c2CCC1c1cccc(C(F)(F)F)c1)C(F)(F)F (single isomer, unassigned; diastereomer 2)
37% | OC(CN1c2cccc(-c3cccc(C(F)(F)F)c3)c2CCC1c1cccc(OC(F)(F)C(F)F)c1)C(F)(F)F (single isomer, unassigned; diastereomer 2)
93% | OC(CN1c2cccc(-c3cccc(C(F)(F)F)c3)c2CCC1c1cccc(OC(F)(F)C(F)F)c1)C(F)(F)F (single isomer, unassigned; diastereomer 1)
100% | OC(CN1c2cccc(-c3cccc(OC(F)(F)F)c3)c2CCC1c1cccc(OC(F)(F)C(F)F)c1)C(F)(F)F (single isomer, unassigned; 19)
21% | N#Cc1cccc(-c2cccc3c2CCC(c2cccc(OC(F)(F)C(F)F)c2)N3CC(O)C(F)(F)F)c1 (single isomer, unassigned; diastereomer 2)

Continued, compound first:

SMILES | inhibition
CCC1CCc2c(-c3cccc(OC(F)(F)F)c3)cccc2N1CC(O)C(F)(F)F (single isomer, unassigned; diastereomer 1) | 44%
OC(CN1c2cccc(-c3cccc(OC(F)(F)F)c3)c2CCC1c1ccc(OC(F)(F)C(F)F)cc1)C(F)(F)F (single isomer, unassigned; diastereomer 1) | 5%
OC(CF)CN1c2cccc(-c3cccc(OC(F)(F)F)c3)c2CCC1c1cccc(OC(F)(F)F)c1 (single isomer, unassigned; diastereomer 1) | 70%
CC(C)C(O)CN1c2cccc(-c3cccc(OC(F)(F)F)c3)c2CCC1c1cccc(OC(F)(F)F)c1 (single isomer, unassigned; form 1) | 79%
COc1cccc(-c2cccc3c2CCC(c2cccc(OC(F)(F)C(F)F)c2)N3CC(O)C(F)(F)F)c1 (single isomer, unassigned; diastereomer 2) | 38%
OC(CN1c2cccc(-c3cccc(Cl)c3Cl)c2CCC1c1cccc(OC(F)(F)C(F)F)c1)C(F)(F)F (single isomer, unassigned; diastereomer 2) | 86%
COc1cccc(-c2cccc3c2CCC(c2cccc(OC(F)(F)C(F)F)c2)N3CC(O)C(F)(F)F)c1 (single isomer, unassigned; diastereomer 1) | 68%
OC(CN1c2cccc(-c3cccc(OC(F)(F)F)c3)c2CCC1c1cccc(OC(F)(F)F)c1)C(F)(F)F (stereo in doubt; 52) | 68%
OC(CF)CN1c2cccc(-c3cccc(OC(F)(F)F)c3)c2CCC1c1cccc(OC(F)(F)F)c1 (single isomer, unassigned; diastereomer 2) | 13%
OC(CN1c2cccc(-c3cccc(OC(F)(F)F)c3)c2CCC1c1cccs1)C(F)(F)F (single isomer, unassigned; diastereomer 2) | 12%
OC(CN1c2cccc(-c3cccc(Cl)c3Cl)c2CCC1c1cccc(OC(F)(F)C(F)F)c1)C(F)(F)F (stereo in doubt; 17) | 67%
OC(CN1c2cccc(-c3cccc(OC(F)(F)F)c3)c2CCC1c1ccccc1)C(F)(F)F (single isomer, unassigned; diastereomer 2) | 6%
CC(C)C(O)CN1c2cccc(-c3cccc(OC(F)(F)F)c3)c2CCC1c1cccc(OC(F)(F)F)c1 (single isomer, unassigned; form 2) | 0%
CCc1cc(Oc2cccc3c2CCC(c2cccc(OC(F)(F)C(F)F)c2)N3CC(O)C(F)(F)F)ccc1Cl (single isomer, unassigned; diastereomer 1) | 62%
OC(CCl)CN1c2cccc(-c3cccc(OC(F)(F)F)c3)c2CCC1c1cccc(OC(F)(F)F)c1 (single isomer, unassigned; diastereomer 1) | 56%
CCC1CCc2c(-c3cccc(OC(F)(F)F)c3)cccc2N1CC(O)C(F)(F)F (single isomer, unassigned; diastereomer 2) | 12%
OC(CN1c2cccc(-c3cccc(OC(F)(F)F)c3)c2CCC1C1CCCCC1)C(F)(F)F (single isomer, unassigned; form 2) | 13%
OC(CN1c2cccc(-c3cccc(OC(F)(F)F)c3)c2CCC1C1CCCCC1)C(F)(F)F (single isomer, unassigned; diastereomer 1) | 11%
OC(CN1c2cccc(-c3cccc(OC(F)(F)F)c3)c2CCC1c1ccc(OC(F)(F)C(F)F)cc1)C(F)(F)F (stereo in doubt; 41) | 14%
O[C@H](CN1c2cccc(-c3cccc(OC(F)(F)F)c3)c2CC[C@H]1c1cccc(OC(F)(F)F)c1)C(F)(F)F | 46%
OC(CN1c2cccc(-c3cccc(OC(F)(F)F)c3)c2CCC1c1cccs1)C(F)(F)F (single isomer, unassigned; diastereomer 1) | 28%
CC(C)C(O)CN1c2cccc(-c3cccc(OC(F)(F)F)c3)c2CCC1c1cccc(OC(F)(F)F)c1 (single isomer, unassigned; diastereomer 2) | 22%
OC(CN1c2cccc(-c3cccc(OC(F)(F)F)c3)c2CCC1C1CCCCC1)C(F)(F)F (single isomer, unassigned; form 1) | 2%
O[C@@H](CN1c2cccc(-c3cccc(OC(F)(F)F)c3)c2CC[C@H]1c1cccc(OC(F)(F)F)c1)C(F)(F)F | 20%
COCC(O)CN1c2cccc(-c3cccc(OC(F)(F)F)c3)c2CCC1c1cccc(OC(F)(F)F)c1 (single isomer, unassigned; diastereomer 1) | 13%
CCc1cc(Oc2cccc3c2CCC(c2cccc(OC(F)(F)C(F)F)c2)N3CC(O)C(F)(F)F)ccc1Cl (single isomer, unassigned; diastereomer 2) | 86%
